Measured values as given in article PMC7318222, “A Family of Water‐Immiscible, Dipolar Aprotic, Diamide Solvents from Succinic Acid” (Chemsuschem, 2020).

The molecules below were run against T1, ERα (Homo sapiens, UniProt P03372) (assay: ERα CALUX reporter gene assay). Details: PC10, 24 h exposure.
T1 construct: expression construct for the full-length human receptor under investigation; expressed in transfected cells; host or cells: human U2-OS cells (ATCC HTB-96), stably transfected
T1 sequence (P03372 1-595): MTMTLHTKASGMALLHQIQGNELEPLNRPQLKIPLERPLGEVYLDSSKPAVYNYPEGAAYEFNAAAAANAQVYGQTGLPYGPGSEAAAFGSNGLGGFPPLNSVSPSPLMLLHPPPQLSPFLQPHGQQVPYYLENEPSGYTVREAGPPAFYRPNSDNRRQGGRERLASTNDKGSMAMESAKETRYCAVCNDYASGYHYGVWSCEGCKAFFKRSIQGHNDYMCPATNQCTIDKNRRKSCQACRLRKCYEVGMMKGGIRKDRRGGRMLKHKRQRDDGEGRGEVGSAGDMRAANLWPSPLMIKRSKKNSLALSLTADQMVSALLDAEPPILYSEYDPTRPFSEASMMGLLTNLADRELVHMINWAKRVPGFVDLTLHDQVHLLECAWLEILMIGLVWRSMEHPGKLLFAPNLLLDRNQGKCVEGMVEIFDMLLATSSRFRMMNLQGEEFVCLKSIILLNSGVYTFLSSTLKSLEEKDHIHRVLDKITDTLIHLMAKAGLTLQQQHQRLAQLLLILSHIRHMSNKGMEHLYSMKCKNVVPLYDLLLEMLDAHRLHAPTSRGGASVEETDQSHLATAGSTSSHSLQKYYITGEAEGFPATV
Assay type: cell-based
Parameters: key: –: no effect observed up to the highest test concentration
Excerpt: Toluene ≥99.0%, hexane ≥99.5%,
DCM ≥99.5%, chloroform ≥99.5%, DMSO ≥99.0% were purchased from VWR. N,N-diethyl-4-nitroaniline ≥98.0% was purchased from Alfa Aeser. Cyrene was supplied by Circa group. N-butylpyrrolidinone was supplied by Eastman chemicals. N,N-dimethylformamide 99.9% and N,N-dimethylacetamide 99.9% were purchased from Fischer. The flakes of Ultrason® E3020 P Polyarylethersulfone of 55,000 Da were obtained from INGE.BASF, Germany. The CALUX cell lines have been described previously.[1] They are based on human U2-OS cells (ATCC, HTB-96) stably transfected with an expression construct for the full-length human receptor under investigation, and a reporter construct consisting of multimerized responsive elements for the cognate receptor coupled to a minimal promoter element (TATA) and a luciferase gene. Cells were maintained as described previously,[2] using cell culture media and supplements from Fisher Scientific as described in the experimental procedures section. […]
In vitro reporter gene assays
The automated CALUX assays were carried out similarly as described earlier,[12] with some adaptations. In brief, the assay was performed in CO2 independent medium (Fisher Scientific, […]
supplement (Fisher Scientific, 11574466), 10 U/mL penicillin and 10 µg/mL streptomycin. A cell suspension in assay medium was made of 1 × 10^5cells/mL, and white 384-wells plates were seeded with 30 µl cell suspension/well. After 24 h, exposure medium was prepared. A dilution series in 0.5log unit increments of each test compound (in DMSO) was added to a 96-wells plate containing assay medium (2% v/v). Of this exposure mixture, 30 µl was added to the assay plates containing the CALUX cells, resulting in a final DMSO concentration of 1%. Additionally, DMSO blanks and a full dose response curve of the relevant reference compound were included on each plate. All samples were tested in triplicate. The preparation of the compound dilution series as well as the exposure of the cells were performed on a Hamilton StarLET liquid handling robot coupled to a Cytomat incubator.
Directly after exposure, plates were sealed with non-breathing plate seals (Plate sealer, easy seal transparent; Greiner-Bio-One, 676001). After 24 h the exposure medium was removed using an EL406 washer-dispenser (BioTek) and 10 µl/well triton lysisbuffer was added by the EL406.
Subsequently, the luciferase signal was measured in a luminometer (InfinitePro coupled to a Connect Stacker, both TECAN). In order to be able to detect receptor antagonism, several assays were also performed in antagonistic mode. The assay procedure was as described above, with the only exception that the EC50 concentration of the reference agonist was present during the exposure.
The luminometer data was analysed as follows; the average of the triplicate wells was determined, and the average blank (DMSO) value was subtracted. For receptor-based assays the maximum response elicited by the reference compound was set to 100% (full receptor- or pathway activation), and the other values were scaled accordingly. […] For antagonist- and cytotoxicity experiments, PC20 values were determined instead, which was defined as the concentration where the test compound causes a 20% decrease in the basal signal, which was […]
curve, the signal induction above background (DMSO) was determined, and the concentration where the compound elicited a 1.5-fold increase above background was used as LEC.

LEC ERα	SMILES
–	CCCCN(CC)C(=O)CCC(=O)N(CC)CCCC [EBSA, N,N′‐diethyl‐N,N′‐dibutylsuccindiamide]
–	CCCCN(CCCC)C(=O)CCC(=O)N(CCCC)CCCC [TBSA, N,N,N′,N′‐tetrabutylsuccindiamide]

Continued, molecule first:

SMILES	LEC ERα
CCCCN(C)C(=O)CCC(=O)N(C)CCCC [MBSA, N,N′‐dimethyl‐N,N′‐dibutylsuccindiamide]	–
CCCCN1CCCC1=O [NBP, N‐Butylpyrrolidinone, reference compound]	–
CN1CCCC1=O [NMP, N‐methyl‐2‐pyrrolidone, reference compound]	–
